Data as given in patent US20100129434A1, “COMPOSITIONS AND METHODS FOR THE TREATMENT OF MUCORMYCOSIS AND OTHER FUNGAL DISEASES” (priority 2006, published 2010).
Converted amounts (≈) assume the structure as drawn.

What was measured:
R. oryzae [1] = assay: Survival of guinea pigs infected with R. oryzae and treated with iron chelators; assay type: in vivo; details: guinea pigs infected with R. oryzae
From the text: The role of iron metabolism in the pathogenesis of mucormycosis allows the possibility of utilizing effective iron chelators for antifungal therapy, including as an adjunctive antifungal therapy.

R. oryzae 99-880 = assay: MIC and MFC of deferiprone and deferoxamine against R. oryzae; assay type: cell-based, Rhizopus oryzae; details: for MFC / MIC: R. oryzae
Experimental: Initially, the in vitro activity of deferiprone against R. oryzae was assessed in this study. Briefly, R. oryzae 99-880 was isolated from a brain abscess of a diabetic patient. The organism was grown on potato dextrose agar (PDA) for 3 days at 37° C. In some experiments, R oryzae was starved for iron by growth on PDA in the presence of 1 mM of ascorbic acid and ferrozine. The sporangiospores were collected in endotoxin free PBS containing 0.01% Tween 80, washed with PBS then counted with hemacytometer to prepare the final inocula. For susceptibility testing, the minimum inhibitory concentration (MIC) and minimum fungicidal concentration (MFC) were determined for Def and deferoxamine by the method of Espinel-Ingroff (J Clin Microbiol 39:954 (2001)).

R. oryzae [2] = assay: Survival of diabetic ketoacidotic (DKA) mice infected with R. oryzae; assay type: in vivo, BALB/c male mice; details: for survival compared to placebo: 4.3×10^3 spores; for efficacy of Def on administration of FeCl3: Def 100 mg/kg qod plus FeCl3 60 mg/kg iv
Experimental: (§1) Briefly, for in vivo infection, BALB/c male mice (>20 g) were rendered diabetic with a single i.p. injection of 210 mg/kg streptozotocin in 0.2 ml citrate buffer 10 days prior to fungal challenge. […] Mice were infected through the tail vein with the appropriate inocula of R. oryzae. To confirm the inocula, dilutions were streaked on PDA plates and colonies were counted following a 24 h incubation period at room temperature. The primary efficacy endpoint was time to death. As a secondary endpoint, brain fungal burden (the primary target organ) was determined by homogenization by rolling a pipette on organs placed in Whirl-Pak bags (Nasco, Fort Atkinson, Wis.) containing 2 ml saline. The homogenate was serially diluted in 0.85% saline and then quantitatively cultured on PDA. Values were expressed as log 10 cfu g^−1 tissue. All procedures involving mice were approved by the institutional animal use and care committee, following the National Institutes of Health guidelines for animal housing and care.
Deferiprone (Apotex Research Inc.) was dissolved in iron-free water and administered intraperitoneally at 50, 100, or 200 mg/kg qd or qod (every other day). Treatment was begun 24 h post infection and continued for a total of 4 doses. Control groups were treated with the diluent, 5% dextrose water.
Deferiprone is known to form molecular complexes with ferric iron (^3+Fe) in a 1:3 ratio of iron to deferiprone. Based on the known molecular weights of ferric chloride (FeCl3, molecular weight 162.22 g/mol) and deferiprone (molecular weight 139 g/mol), a 60 mg/kg dose of FeCl3 was calculated to result in a significant excess of ^3+Fe vs. a 100 mg/kg dose of deferiprone given to an 18 g mouse: ^3+Fe moles=(0.060 g/kg*0.018 kg [mouse weight]/162.22 g/mol)=6.5×10^−6 mol vs. deferiprone moles=(0.1 g/kg*0.018 kg [mouse weight]/139 g/mol)=1.3×10^−5 mol Ratio=1:2 moles of ^3+Fe to deferiprone, which is more than that required to achieve a saturating 1:3 ratio.
Statistical analysis was performed using the nonparametric log rank test was used to determine differences in survival times of the mice. Differences in tissue fungal burdens in the infected organs were compared by the nonparametric Steel test for multiple comparisons. P values of <0.05 were considered significant.
Deferasirox (Novartis Pharmaceuticals, Basel, Switzerland) was suspended in 0.5% hydroxypropylcellulose (Klucel) and administered by oral gavage at 1, 3, or 10 mg/kg […] (qd) or every other day (qod). Treatment was begun 24 h post infection and continued for a total of 5 or 7 doses. Control groups were treated with the diluent, 5% dextrose water and 0.5% Klucel. In some experiments, a saturating dose of free iron was administered with deferasirox. Deferasirox is known to form molecular complexes with ferric iron (^3+Fe) in a 1:2 ratio of iron to deferasirox. Based on the known molecular weights of ferric chloride (FeCl3, molecular weight 162.22 g/mol) and deferasirox (molecular weight 373.4 g/mol), a 2.8 mg/kg dose of FeCl3 was calculated to result in a significant excess of ^3+Fe vs. a 10 mg/kg dose of deferasirox given to an 18 g mouse: ^3+Fe moles=(0.0028 g/kg*0.018 kg [mouse weight]/162.22 g/mol)=3×10^−7 mol vs. deferasirox moles=(0.01 g/kg*0.018 kg [mouse weight]/373.4 g/mol)=5×10^−7 mol Ratio=1:1.7 moles of ^3+Fe to deferasirox, which is more than that required to achieve a saturating 1:2 ratio.
The nonparametric log rank test was used to determine differences in survival times of the mice. Differences in tissue fungal burdens, splenic lymphocyte frequencies, and whole organ cytokines in the infected organs were compared by the Mann Whitney U test. P values of <0.05 were considered significant.

R. oryzae [3] = assay: Tissue fungal burden of DKA mice infected with R. oryzae; assay type: in vivo, BALB/c male mice; details: 3.8×10^3 spores, two doses, brains harvested about 54 h post-infection, P<0.036
Experimental: as §1
(§2) For in vivo infection, BALB/c male mice (>20 g) were rendered diabetic with a single i.p. injection of 210 mg/kg streptozotocin in 0.2 ml citrate buffer 10 days prior to fungal challenge. […] For neutropenic mouse model, mice were injected with a single i.p. dose of 200 mg/kg cyclolphosphamide (Bristol Myer Squibb) 2 days prior to infection with R. oryzae. […] Mice were infected through the tail vein with the appropriate inocula of R. oryzae. To confirm the inocula, dilutions were streaked on PDA plates containing 0.1% triton and colonies were counted following a 24 h incubation period at 37° C. The primary efficacy endpoint was time to death. As a secondary endpoint, brain fungal burden (the primary target organ) was determined by homogenization by rolling a pipette on organs placed in Whirl-Pak™ bags (Nasco®, Fort Atkinson, Wis.) containing 1 ml saline. The homogenate was serially diluted in 0.85% saline and then quantitatively cultured on PDA. Values were expressed as log10 cfu g−1 tissue. Finally, for histopathological analysis, infected organs were collected from mice and fixed in 10% zinc formalin. Fixed tissues were embedded in paraffin, and […] sections were stained with haematoxylin and eosin for light microscopy examination. All procedures involving mice were approved by the institutional animal use and care committee, following the National Institutes of Health guidelines for animal housing and care.

R. oryzae [4] = assay: Survival of neutropenic mice infected with R. oryzae; assay type: in vivo; details: prophylaxis from day −1, Def qod, LAmB qd or both, four doses, placebo 0%
Experimental: as §2
Two days later, mice were infected via the tail-vein with 2.7×10^3 spores of R. oryzae 99-892.

invasive mucormycosis = details: patients treated with deferoxamine; cited from earlier work
[5] = Rhizopus arrhizus, 99880, 24 h, 24 h
[6] = Rhizopus arrhizus, 99880, 48 h, 48 h

Structure (SMILES)	Mean (±SD) Survival Time (R. oryzae [1])	static or cidal effect against R. oryzae (R. oryzae 99-880; 24 h of incubation)	static or cidal effect against R. oryzae (R. oryzae 99-880; 24 h of incubation, listed as deferiprone)	static or cidal effect against R. oryzae (R. oryzae 99-880; 48 h of incubation)	static or cidal effect against R. oryzae (R. oryzae 99-880; 48 h of incubation, listed as deferiprone)	MFC (R. oryzae 99-880; 48 h)	MIC (R. oryzae 99-880; [5])	MIC (R. oryzae 99-880; [6])	28-day survival (R. oryzae [2]; DKA mice infected with R. oryzae, treatment from 24 h post infection, 4 doses, LAmB 15 mg/kg qd iv, Def 100 mg/kg qod ip, placebo 0%)	survival compared to placebo (R. oryzae [2]; DKA mice, 50 mg/kg qd or qod)	survival compared to placebo (R. oryzae [2]; DKA mice, 100 mg/kg qd or 200 mg/kg qd or qod)	survival compared to placebo (R. oryzae [2]; DKA mice, 100 mg/kg qod, 4 doses from 24 h post infection, P=0.027)	efficacy of Def on administration of FeCl3 (R. oryzae [2]; DKA mice)	efficacy of Def on administration of FeCl3 (R. oryzae [2]; DKA mice, listed as Def)	28-day survival compared to placebo (R. oryzae [2]; DKA mice, LAmB 15 mg/kg qd or deferiprone 100 mg/kg qod, P<0.003 Log Rank)	brain fungal burden compared to placebo (R. oryzae [3])	survival (R. oryzae [4])	MFC (R. oryzae 99-880; 24 h, listed as deferoxamine)	MFC (R. oryzae 99-880; 48 h, listed as deferoxamine)	mortality of invasive mucormycosis (invasive mucormycosis)
CCc1c(O)c(=O)ccn1CC [CP94]	8.7 ± 1.0 days																			
Cc1c(O)c(=O)ccn1C [Deferiprone, 1,2 dimethyl-3-hydroxypyrid-4-1]	16.2 ± 4.0 days	static	static effect	cidality	cidal effect	6.25 µg/mL (≈ 44.9 µM)	3.12 µg/mL (≈ 22.4 µM)	6.25 µg/mL (≈ 44.9 µM)	30%	did not improve survival	did not improve survival	improved survival	completely abrogated	abrogated	improved 28-day survival	reduced brain fungal burden	22%			
CC(=O)N(O)CCCCCNC(=O)CCC(=O)N(O)CCCCCNC(=O)CCC(=O)N(O)CCCCCN [Deferoxamine]	4.8 ± 1.1 days						> 100 µg/mL	> 100 µg/mL										> 100 µg/mL	> 100 µg/mL	> 80%
